1 molecule from ChEMBL document CHEMBL5512688 (J Med Chem, 2024) can be followed below.

Series [1] addresses T1, Cyclin-G-associated kinase (Homo sapiens) (UniProt O14976).
T1 sequence (whole entry): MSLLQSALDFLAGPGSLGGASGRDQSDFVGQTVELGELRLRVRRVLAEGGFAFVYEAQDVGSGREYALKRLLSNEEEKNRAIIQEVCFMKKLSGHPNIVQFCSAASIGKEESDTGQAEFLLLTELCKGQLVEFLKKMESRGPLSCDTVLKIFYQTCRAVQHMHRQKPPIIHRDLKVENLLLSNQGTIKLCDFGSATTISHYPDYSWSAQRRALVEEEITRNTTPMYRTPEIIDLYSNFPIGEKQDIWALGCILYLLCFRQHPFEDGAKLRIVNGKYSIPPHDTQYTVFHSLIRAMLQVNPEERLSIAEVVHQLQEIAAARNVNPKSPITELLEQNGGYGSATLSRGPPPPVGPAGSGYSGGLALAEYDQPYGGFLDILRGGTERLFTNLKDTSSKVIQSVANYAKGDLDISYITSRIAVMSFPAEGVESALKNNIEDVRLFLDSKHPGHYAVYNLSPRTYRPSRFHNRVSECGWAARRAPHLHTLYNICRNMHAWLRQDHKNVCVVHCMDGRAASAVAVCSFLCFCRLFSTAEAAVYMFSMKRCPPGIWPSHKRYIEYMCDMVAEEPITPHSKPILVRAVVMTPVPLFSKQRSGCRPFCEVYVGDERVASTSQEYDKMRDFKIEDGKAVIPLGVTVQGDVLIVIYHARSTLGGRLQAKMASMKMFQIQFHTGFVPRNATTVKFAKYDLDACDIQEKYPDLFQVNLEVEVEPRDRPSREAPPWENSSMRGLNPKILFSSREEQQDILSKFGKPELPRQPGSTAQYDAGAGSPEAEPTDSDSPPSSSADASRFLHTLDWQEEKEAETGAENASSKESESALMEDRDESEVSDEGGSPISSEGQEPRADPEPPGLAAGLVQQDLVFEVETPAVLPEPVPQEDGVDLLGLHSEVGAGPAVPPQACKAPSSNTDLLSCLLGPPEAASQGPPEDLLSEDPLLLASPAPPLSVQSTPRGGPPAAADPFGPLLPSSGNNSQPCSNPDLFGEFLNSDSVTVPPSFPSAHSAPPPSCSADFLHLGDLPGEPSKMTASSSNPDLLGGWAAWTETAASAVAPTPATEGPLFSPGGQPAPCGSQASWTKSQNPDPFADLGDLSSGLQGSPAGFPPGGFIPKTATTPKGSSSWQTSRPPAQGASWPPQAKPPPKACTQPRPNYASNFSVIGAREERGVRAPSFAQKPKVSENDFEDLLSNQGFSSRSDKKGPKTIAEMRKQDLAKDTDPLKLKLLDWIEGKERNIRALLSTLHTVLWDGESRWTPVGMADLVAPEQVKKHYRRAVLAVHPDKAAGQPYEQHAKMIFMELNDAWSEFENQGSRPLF
The series can be described thus: Inhibition of GAK (unknown origin) at 1 uM relative to control.

Series [2] has as its system A-427. The series can be described thus: Induction of apoptosis in human A-427 cells assessed as late apoptotic cells at 800 nM measured for 48 hrs by Annexin V/PI double staining based flow cytometry analysis (reference value: 0.21%). In kind it is functional. (A flow cytometer gives signals particle by particle.)
The subject of series [3] is A-427. As to the kind of experiment: Induction of cell cycle arrest in human A-427 cells assessed as accumulation of cells at G2/M phase at 400 nM measured for 48 hrs by flow cytometry analysis (reference value: 10.9 %). Format: functional.
Series [4] concerns A-427. The series can be described thus: Induction of cell cycle arrest in human A-427 cells assessed as accumulation of cells at G0/G1 phase at 400 nM measured for 48 hrs by flow cytometry analysis (reference value: 49.5%). Format: functional.
The next series concerns the target Wee1-like protein kinase (Homo sapiens, UniProt P30291). The series can be described thus: Inhibition of human Wee1 (215 to 647 residues) using polyornithine/tyrosine (4:1) as substrate incubated for 5 mins in presence of ATP by micro beta plate reader analysis.
Series [5] in a line: Metabolic stability in human liver microsome assessed as parent compound remaining measured at 60 mins by LCMS/MS analysis. Conditions: liver microsomes, read-out: Stability. In kind it is ADME.
The subject of series [6] is A-427. As to the kind of experiment: Induction of cell cycle arrest in human A-427 cells assessed as accumulation of cells at G2/M phase at 100 nM measured for 48 hrs by flow cytometry analysis (reference value: 10.9 %). Format: functional.
Series [7] has as its system A-427. The series can be described thus: Induction of apoptosis in human A-427 cells assessed as early apoptotic cells at 200 nM measured for 48 hrs by Annexin V/PI double staining based flow cytometry analysis (reference value: 1.96%). In kind it is functional.
For series [8], the system named is A-427. The series can be described thus: Induction of cell cycle arrest in human A-427 cells assessed as accumulation of cells at G0/G1 phase at 100 nM measured for 48 hrs by flow cytometry analysis (reference value: 49.5%). Format: functional.
Series [9] has as its system A-427. As to the kind of experiment: Induction of cell cycle arrest in human A-427 cells assessed as accumulation of cells at G2/M phase at 50 nM measured for 48 hrs by flow cytometry analysis (reference value: 10.9 %). Format: functional.
A short description of series [10]: Metabolic stability in mouse liver microsome assessed as parent compound remaining measured at 60 mins by LCMS/MS analysis. In kind it is ADME. Conditions: liver microsomes, read-out: Stability. (Liver microsomes are vesicles of endoplasmic reticulum, rich in cytochrome P450 enzymes.)
Series [11] has as its system A-427. As to the kind of experiment: Antiproliferative activity against human A-427 cells assessed as inhibition of cell growth incubated for 72 hrs by CCK-8 assay. In kind it is functional, cell-based. Conditions: A-427, 72 h. In general terms: Formazan colour is commonly taken as a measure of viable cells.
In series [12] the test system is A-427. As to the kind of experiment: Induction of cell cycle arrest in human A-427 cells assessed as accumulation of cells at G0/G1 phase at 200 nM measured for 48 hrs by flow cytometry analysis (reference value: 49.5%). In kind it is functional.
Series [13] concerns A-427. As to the kind of experiment: Induction of apoptosis in human A-427 cells assessed as necrotic cells at 200 nM measured for 48 hrs by Annexin V/PI double staining based flow cytometry analysis (reference value: 0.098%). In kind it is functional.
In series [14] the test system is A-427. As to the kind of experiment: Induction of apoptosis in human A-427 cells assessed as necrotic cells at 800 nM measured for 48 hrs by Annexin V/PI double staining based flow cytometry analysis (reference value: 0.098%). Format: functional.
Series [15] is described as follows: Volume of distribution in ICR mouse at 1 mg/kg, iv measured upto 24 hrs by LC-MS/MS analysis. Conditions: in vivo. In kind it is ADME, organism-based.
Series [16] deals with A-427. The series can be described thus: Induction of cell cycle arrest in human A-427 cells assessed as accumulation of cells at S phase at 100 nM measured for 48 hrs by flow cytometry analysis (reference value: 4 %). Format: functional.
The test system of series [17] is A-427. As to the kind of experiment: Induction of apoptosis in human A-427 cells assessed as viable cells at 200 nM measured for 48 hrs by Annexin V/PI double staining based flow cytometry analysis (reference value: 97.7%). In kind it is functional. Conditions: read-out: Activity.
A short description of series [18]: Clearance in ICR mouse at 1 mg/kg, iv measured upto 24 hrs by LC-MS/MS analysis. Format: ADME, organism-based. Conditions: in vivo.
Series [19] has as its system A-427. As to the kind of experiment: Induction of apoptosis in human A-427 cells assessed as early apoptotic cells at 800 nM measured for 48 hrs by Annexin V/PI double staining based flow cytometry analysis (reference value: 1.96%). In kind it is functional.
The test system of series [20] is A-427. The series can be described thus: Induction of apoptosis in human A-427 cells assessed as viable cells at 800 nM measured for 48 hrs by Annexin V/PI double staining based flow cytometry analysis (reference value: 97.7%). In kind it is functional. Conditions: read-out: Activity.

Wee1-like protein kinase, sequence (P30291 whole entry, the tested form may be a part): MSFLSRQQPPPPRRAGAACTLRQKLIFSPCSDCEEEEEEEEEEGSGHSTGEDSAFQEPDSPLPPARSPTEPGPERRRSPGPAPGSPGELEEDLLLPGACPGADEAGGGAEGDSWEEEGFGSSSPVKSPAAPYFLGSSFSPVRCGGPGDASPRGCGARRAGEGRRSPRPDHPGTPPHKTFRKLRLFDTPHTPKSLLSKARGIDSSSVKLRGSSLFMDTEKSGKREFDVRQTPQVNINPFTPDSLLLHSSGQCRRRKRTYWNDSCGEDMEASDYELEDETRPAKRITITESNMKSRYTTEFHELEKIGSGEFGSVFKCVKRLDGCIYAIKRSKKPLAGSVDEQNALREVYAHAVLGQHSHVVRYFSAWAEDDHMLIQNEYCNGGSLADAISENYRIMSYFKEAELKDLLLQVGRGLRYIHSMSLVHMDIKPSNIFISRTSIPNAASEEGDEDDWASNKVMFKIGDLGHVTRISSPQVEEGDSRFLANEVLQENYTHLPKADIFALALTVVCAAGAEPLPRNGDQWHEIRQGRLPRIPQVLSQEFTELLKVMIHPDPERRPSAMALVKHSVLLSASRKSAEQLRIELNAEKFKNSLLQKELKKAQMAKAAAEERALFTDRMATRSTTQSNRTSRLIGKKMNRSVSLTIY

Broadly, the inhibition is the drop in the measured response relative to a control, in per cent. Read a low inhibition as little suppression. A word on the IC50: it is the concentration that inhibits the measured activity by half. The term Vd denotes a proportionality between amount in the body and measured concentration, not a real space. A higher Vd goes with wide distribution into tissue. The clearance is the rate of elimination divided by the concentration. Regarding `C=CCn1c(=O)c2cnc(Nc3ccc(N4CCN(C)CC4)cc3)nc2n1-c1cccc(-c2cnccn2)n1`, the inhibition in series [1] was over 90%. Moreover, the Activity in the series with A-427 [2] is 35.4%; with A-427 [3] it was 9.32%; with A-427 [4], 31.3%; with A-427 [6], 7.09%; in the series with A-427 [7], 9.02%; with A-427 [8] it was 41.4%. The Activity was found to be 6.57% in the series with A-427 [9]; 31.6% with A-427 [12]; 4.82% in the series with A-427 [13]; 3.64% in the series with A-427 [14]; 48.5% in the series with A-427 [16]; 10.1% in the series on A-427 [19]. Also, the IC50 at Wee1-like protein kinase was 2.1 nM; in the series with A-427 [11], 84 nM. Besides, the figures for the remaining at 1 h in [5] and in series [10] were 58.5% and 33.9%, respectively. In series [15], this molecule displayed a distribution volume (Vd) of 11.3 L/kg. Also, the viability at 0.2 µM in the series on A-427 [17] was 60.6%. The clearance in series [18] was 137 mL/min/kg. Also, the viability at 0.8 µM in the series on A-427 [20] was determined as 50.9%.
